# Source: PMC11833175, “Synthesis, characterization, antimicrobial, cytotoxic and carbonic anhydrase inhibition activities of multifunctional pyrazolo-1,2-benzothiazine acetamides” (Beilstein Journal of Organic Chemistry, 2025)
# Like-named read-outs stand apart in the source and are kept apart here.
# Key:
# [1] = tested on: Candida albicans (ATCC 90027); experiment: Microbroth single-dose antimicrobial assay, C. albicans; type: cell-based; conditions: C. albicans ATCC 90027, value (SD); for percent survival at 125 µg/mL: ATCC90027, single dose 125 μg/mL
# Method: (§1) Microbroth single dose antimicrobial assays were performed against different pathogens including susceptible Staphylococcus aureus (ATCC 25923), Escherichia coli (ATCC 8739), and Candida albicans (ATCC 90027). Pathogens were treated with 125 μg/mL of tested compounds in duplicate.
# (§2) The antimicrobial evaluation of the targeted compounds was carried out against five different pathogens including Staphylococcus aureus (susceptible, ATCC 25923; methicillin-resistant, ATCC BAA-41; multidrug-resistant, ATCC BAA-44), Escherichia coli ATCC 8739, and Candida albicans ATCC 90027. Reference antibiotics and final concentrations used as positive controls in these experiments were kanamycin (susceptible S. aureus, 50 μg), vancomycin (methicillin and multidrug-resistant S. aureus, 25 μg), ampicillin (E. coli, 50 μg), and amphotericin B (C. albicans, 25 μg). The final concentration of the tested compounds was 125 μg/mL for microbroth single-dose assays. Dimethyl sulfoxide was used at a final concentration of 0.1% as negative control. […] American type culture collection (ATCC, Manassas, VA, USA) has provided all microbial strains used in above experiments.
# (§3) Antimicrobial Single-dose assay for compounds 7(a-n) against
# (§4) S. aureus E. coli C. albicans
# (§5) Figure S43: Graph showing results of antimicrobial single-dose microbroth assays of compounds 7a–n, dose of tested compounds = 125 μg/mL, control antibiotic s used: kanamycin = 50 μg/mL (Staphylococcus aureus ATCC 25923), ampicillin = 50 μg/mL (Escherichia coli ATCC 8739), and amphotericin B = 25 μg/mL (Candida albicans ATCC 90027). Dimethylsulfoxide ( DMSO) was used as the negative control at 1.25% […]
# (§6) Table S1: Results of single-dose antimicrobial and cytotoxic assays for compounds 7a–n; dosage of tested compounds = 125 μg/mL; antibiotic control dosage (kanamycin = 50 μg/mL (Staphylococcus aureus ATCC 25923), ampicillin = 50 μg/mL (Escherichia coli ATCC 8739), and amphotericin B = 25 μg/mL (Candida albicans ATCC 90027).
# (§7) For cytotoxic assays, dosage of tested compounds = 10 μM; dosage of mensacarcin […]
# (§8) Percent survival / % Cell viability
# (§9) Samples S. aureus E.coli (SD) C. albicans (SD) HCT-116 […]
# [2] = tested on: Escherichia coli (ATCC 8739); experiment: Microbroth single-dose antimicrobial assay, E. coli; type: cell-based; conditions: E. coli ATCC 8739, value (SD); for percent survival at 125 µg/mL: ATCC8739, single dose 125 μg/mL
# Method: as §1, §2, §3, §4, §5, §6, §7, §8, §9
# [3] = molecular target: human carbonic anhydrase CA II (Homo sapiens, UniProt P00918); experiment: hCA inhibition, stopped-flow CO2 hydration method, CA II; conditions: mean from three assays, errors ±5–10%
# Method: (§15) In vitro assessment of all targeted pyrazolobenzothiazine scaffolds for human carbonic anhydrase (hCA) inhibition was performed adopting a stopped-flow CO2 hydration method. The enzyme inhibition assays were carried out for four types of human CA isoforms: CA I, CA II, CA IX, and XII. […] Reason for the selection of these CA isoforms was to develop a comparative relationship for inhibition selectivity between CAs (IX, XII) attributed to tumour/cancer and other CAs (I, II). […] Analyses were carried out in-house using recombinant enzymes as described.
# [4] = molecular target: human carbonic anhydrase CA XII (Homo sapiens, UniProt O43570); experiment: hCA inhibition, stopped-flow CO2 hydration method, CA XII; conditions: mean from three assays, errors ±5–10%
# human carbonic anhydrase CA XII, sequence (O43570 25-354): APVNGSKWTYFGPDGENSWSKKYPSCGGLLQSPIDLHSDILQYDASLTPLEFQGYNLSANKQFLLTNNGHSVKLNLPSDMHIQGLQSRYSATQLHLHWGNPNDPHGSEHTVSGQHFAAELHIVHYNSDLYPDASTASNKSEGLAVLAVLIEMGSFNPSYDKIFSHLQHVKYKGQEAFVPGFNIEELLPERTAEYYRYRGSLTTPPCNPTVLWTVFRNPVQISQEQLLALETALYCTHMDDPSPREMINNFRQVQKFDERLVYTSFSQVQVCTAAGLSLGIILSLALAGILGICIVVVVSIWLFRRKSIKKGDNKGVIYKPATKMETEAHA
# Method: as §15
# [5] = molecular target: human carbonic anhydrase CA IX (Homo sapiens, UniProt Q16790); experiment: hCA inhibition, stopped-flow CO2 hydration method, CA IX; conditions: mean from three assays, errors ±5–10%
# Method: as §15
# [6] = molecular target: human carbonic anhydrase CA I (Homo sapiens, UniProt P00915); experiment: hCA inhibition, stopped-flow CO2 hydration method, CA I
# human carbonic anhydrase CA I, sequence (P00915 whole entry): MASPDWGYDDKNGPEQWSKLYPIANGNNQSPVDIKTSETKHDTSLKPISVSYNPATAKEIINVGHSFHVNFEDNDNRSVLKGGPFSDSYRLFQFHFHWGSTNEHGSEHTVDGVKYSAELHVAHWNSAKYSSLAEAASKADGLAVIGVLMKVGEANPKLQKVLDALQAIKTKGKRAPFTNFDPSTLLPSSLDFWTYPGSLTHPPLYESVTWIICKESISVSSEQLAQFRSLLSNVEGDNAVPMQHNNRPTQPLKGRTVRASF
# Method: as §15
# [7] = tested on: multidrug-resistant S. aureus (ATCC BAA-44); experiment: Microbroth dilution assay (MIC90), multidrug-resistant S. aureus; type: cell-based, Staphylococcus aureus; conditions: Staphylococcus aureus
# Method: (§10) Microbroth dilution assays were performed for the determination of MIC (minimum inhibitory concentration, MIC90) values for compounds 7b and 7h against three different strains of Staphylococcus aureus: susceptible (ATCC 25923), methicillin-resistant (ATCC BAA-41), and multidrug-resistant (ATCC BAA-44).
# as §2
# [8] = Single-dose MTT cell viability assay; type: cell-based, human; conditions: human, HCT-116 cells (ATCC CCL-247), 48 h, 0.1% DMSO control = 100%, value (SD)
# Method: (§11) Single-dose MTT assays were performed for compounds 7a–n against the human colon cancer mammalian cell line (HCT-116, ATCC CCL-247) for evaluating their inhibition of mammalian cell metabolism. Solutions of the tested compounds were prepared in DMSO and cancer cells were treated with 10 μM doses of compounds using the apoptosis inducing standard mensacarcin (10 μM) as a positive control.
# (§12) Single-dose MTT assays were performed for compounds 7a–n with the human colon cancer mammalian cell line (HCT-116, ATCC CCL-247) for evaluating the compounds’ inhibitory effects on cell viability. Stock solutions of compounds were prepared in DMSO and cancer cells were treated with 10 μM doses of each compound and mensacarcin (10 μM) as a positive control. MTT in 1X PBS was added for a final concentration of 0.5 mg/mL 48 hours post compound addition to each well. Post incubation at 37 °C was carried out for 2 h. After the removal of the growth media, purple formazan metabolic product was dissolved in DMSO. A Biotek Synergy reader (96-well plate) was used to take absorbance of all samples at 550 nm. Cell viability was calculated as the ability of the metabolically active cells to reduce tetrazolium salt MTT [3-(4,5-dimethylthiazolyl-2)-2,5-diphenyltetrazolium bromide]. Control metabolic activity shown by cells treated with 0.1% DMSO was set to 100% cell growth. […]
# as §7, §8, §9
# (§13) HCT-116 (Human Colorn cancer cell line) Single -dose assay for […]
# (§14) Figure S44: Graph showing cell viability of compounds 7a–n against human colon carcinoma cell line (HCT-116, ATCC CCL-247), dose of tested compounds = 10 μM, dose of positive control (mensacarcin) = 10 μM.
# [9] = tested on: human colon cancer cell line HCT-116 (ATCC CCL-247); experiment: Single-dose MTT cell viability assay; type: cell-based; conditions: 10 μM
# Method: as §11, §12, §7, §8, §9, §13, §14
# [10] = tested on: methicillin-resistant S. aureus (ATCC BAA-41); experiment: Microbroth dilution assay (MIC90), methicillin-resistant S. aureus; type: cell-based, Staphylococcus aureus; conditions: Staphylococcus aureus, ATCC BAA-41 / MRSA, read-out: MIC90 MRSA
# Method: as §10, §2
# [11] = tested on: Staphylococcus aureus (ATCC 25923); experiment: Microbroth single-dose antimicrobial assay, susceptible S. aureus; type: cell-based; conditions: single dose 125 μg/mL; for percent survival of S. aureus at 125 µg/mL: Staphylococcus aureus, ATCC25923, S. aureus ATCC 25923, value (SD)
# Method: as §1, §2, §3, §4, §5, §6, §7, §8, §9
# [12] = tested on: susceptible S. aureus (ATCC 25923); experiment: Microbroth dilution assay (MIC90), susceptible S. aureus; type: cell-based, Staphylococcus aureus
# Method: as §10, §2
# [13] = read-out: Ki for targeted CAs, II
# [14] = read-out: Ki for targeted CAs, XII
# [15] = read-out: Ki for targeted CAs, IX
# [16] = read-out: Ki for targeted CAs, I, mean from three assays, errors ±5–10%
structure (smiles),measurement,setting,value
"C[C@@H]1[C@H](O)[C@@H](C)/C=C/C=C/C=C/C=C/C=C/C=C/C=C/[C@H](O[C@@H]2O[C@H](C)[C@@H](O)[C@H](N)[C@@H]2O)C[C@@H]2O[C@](O)(C[C@@H](O)C[C@@H](O)[C@H](O)CC[C@@H](O)C[C@@H](O)CC(=O)O[C@H]1C)C[C@H](O)[C@H]2C(=O)O [Amphotericin B, amphotericin B, reference compound]",percent survival at 25 µg/mL,"[1]; ATCC90027, antibiotic control 25 μg/mL",4.71%
"CC1(C)S[C@@H]2[C@H](NC(=O)[C@H](N)c3ccccc3)C(=O)N2[C@H]1C(=O)O [Ampicillin, ampicillin, reference compound]",percent survival at 50 µg/mL,"[2]; ATCC8739, antibiotic control 50 μg/mL",4.16%
CN1c2c(O)nn(CC(=O)Nc3ccc(Cl)cc3)c2-c2ccccc2S1(=O)=O [Compound 7a],Ki,[3]; [13],84.6 µM
same,Ki,[4]; [14],90.2 µM
same,Ki,[5]; [15],> 100 µM
same,Ki,[6]; [16],> 100 µM
CN1c2c(O)nn(CC(=O)Nc3cccc(Cl)c3)c2-c2ccccc2S1(=O)=O [Compound 7b],MIC90,"[7]; ATCCBAA44, multidrug-resistant S. aureus ATCC BAA-44, 90% growth inhibition, read-out: MIC90 MDRSA",16 µg/mL
same,Ki,"[3]; Ki for targeted CAs, II",90.9 µM
same,Ki,"[4]; Ki for targeted CAs, XII",77.4 µM
same,percent survival at 125 µg/mL,[1],87%
same,Ki,"[5]; Ki for targeted CAs, IX",72.9 µM
same,percent survival at 125 µg/mL,[2],95.3%
same,"viability at 48 h, 10 µM",[8],88.9%
same,effect on HCT-116 cell viability (in words),[9],no significant decrease in mammalian cell viability
same,Ki,[6],> 100 µM
same,MIC90,"[10]; methicillin-resistant S. aureus ATCC BAA-41, 90% growth inhibition",16 µg/mL
same,percent survival of S. aureus at 125 µg/mL,[11],37.2%
same,antibacterial activity against susceptible S. aureus (in words),[11]; duplicate,significant antibacterial activity
same,MIC90,"[12]; Staphylococcus aureus, ATCC25923, 90% growth inhibition",16 µg/mL
CN1c2c(O)nn(CC(=O)NCc3ccccc3)c2-c2ccccc2S1(=O)=O [Compound 7f],Ki,[3]; [13],90.3 µM
same,Ki,[4]; [14],79.1 µM
same,Ki,[5]; [15],> 100 µM
same,Ki,[6]; [16],> 100 µM
CN1c2c(OCC(=O)Nc3ccc([N+](=O)[O-])cc3)nn(CC(=O)Nc3ccc([N+](=O)[O-])cc3)c2-c2ccccc2S1(=O)=O [Compound 7i],Ki,[3]; [13],> 100 µM
same,Ki,[4]; [14],> 100 µM
same,Ki,[5]; [15],> 100 µM
same,Ki,[6]; [16],> 100 µM
COc1ccc(NC(=O)COc2nn(CC(=O)Nc3ccc(OC)cc3)c3c2N(C)S(=O)(=O)c2ccccc2-3)cc1 [Compound 7j],Ki,"[3]; Ki for targeted CAs, II",> 100 µM
same,Ki,"[4]; Ki for targeted CAs, XII",> 100 µM
same,percent survival at 125 µg/mL,[1],99.5%
same,Ki,"[5]; Ki for targeted CAs, IX",> 100 µM
same,percent survival at 125 µg/mL,[2],> 100%
same,"viability at 48 h, 10 µM",[8],> 100%
same,Ki,[6],> 100 µM
same,percent survival of S. aureus at 125 µg/mL,[11],> 100%
Cc1cccc(NC(=O)COc2nn(CC(=O)Nc3cccc(C)c3C)c3c2N(C)S(=O)(=O)c2ccccc2-3)c1C [Compound 7k],Ki,"[3]; Ki for targeted CAs, II",> 100 µM
same,Ki,"[4]; Ki for targeted CAs, XII",> 100 µM
same,percent survival at 125 µg/mL,[1],> 100%
same,Ki,"[5]; Ki for targeted CAs, IX",> 100 µM
same,percent survival at 125 µg/mL,[2],94.2%
same,"viability at 48 h, 10 µM",[8],90.7%
same,Ki,[6],> 100 µM
same,percent survival of S. aureus at 125 µg/mL,[11],> 100%
Cc1ccccc1NC(=O)COc1nn(CC(=O)Nc2ccccc2C)c2c1N(C)S(=O)(=O)c1ccccc1-2 [Compound 7l],Ki,[3]; [13],> 100 µM
same,Ki,[4]; [14],> 100 µM
same,Ki,[5]; [15],> 100 µM
same,effect on HCT-116 cell viability (in words),[9],inhibited cell viability
same,Ki,[6]; [16],> 100 µM
Cc1ccc(NC(=O)COc2nn(CC(=O)Nc3ccc(C)cc3)c3c2N(C)S(=O)(=O)c2ccccc2-3)cc1 [Compound 7m],Ki,[3]; [13],> 100 µM
same,Ki,[4]; [14],> 100 µM
same,Ki,[5]; [15],> 100 µM
same,Ki,[6]; [16],> 100 µM
CN1c2c(OCC(=O)NC3CCCCC3)nn(CC(=O)NC3CCCCC3)c2-c2ccccc2S1(=O)=O [Compound 7n],Ki,[3]; [13],> 100 µM
same,Ki,[4]; [14],> 100 µM
same,Ki,[5]; [15],> 100 µM
same,Ki,[6]; [16],> 100 µM
"NC[C@H]1O[C@H](O[C@H]2[C@H](O)[C@@H](O[C@H]3O[C@H](CO)[C@@H](O)[C@H](N)[C@H]3O)[C@H](N)C[C@@H]2N)[C@H](O)[C@@H](O)[C@@H]1O [Kanamycin, kanamycin, reference compound]",MIC90 SA,[12]; 90% growth inhibition,<1 µg/mL
"CN[C@H](CC(C)C)C(=O)N[C@H]1C(=O)N[C@@H](CC(N)=O)C(=O)N[C@H]2C(=O)N[C@H]3C(=O)N[C@H](C(=O)N[C@H](C(=O)O)c4cc(O)cc(O)c4-c4cc3ccc4O)[C@H](O)c3ccc(c(Cl)c3)Oc3cc2cc(c3O[C@@H]2O[C@H](CO)[C@@H](O)[C@H](O)[C@H]2O[C@H]2C[C@](C)(N)[C@H](O)[C@H](C)O2)Oc2ccc(cc2Cl)[C@H]1O [vancomycin, reference compound]",MIC90,"[7]; ATCCBAA44, read-out: MIC90 MDRSA",< 1 µg/mL
same,MIC90,[10],< 1 µg/mL
